The target in one assay is T1, ACAT (Rattus norvegicus, UniProt Q7TQM4).
T1 construct: Rat liver microsomes are used as the source of ACAT; from tissue; host or cells: rat liver microsomes
T1 sequence (Q7TQM4 1-524): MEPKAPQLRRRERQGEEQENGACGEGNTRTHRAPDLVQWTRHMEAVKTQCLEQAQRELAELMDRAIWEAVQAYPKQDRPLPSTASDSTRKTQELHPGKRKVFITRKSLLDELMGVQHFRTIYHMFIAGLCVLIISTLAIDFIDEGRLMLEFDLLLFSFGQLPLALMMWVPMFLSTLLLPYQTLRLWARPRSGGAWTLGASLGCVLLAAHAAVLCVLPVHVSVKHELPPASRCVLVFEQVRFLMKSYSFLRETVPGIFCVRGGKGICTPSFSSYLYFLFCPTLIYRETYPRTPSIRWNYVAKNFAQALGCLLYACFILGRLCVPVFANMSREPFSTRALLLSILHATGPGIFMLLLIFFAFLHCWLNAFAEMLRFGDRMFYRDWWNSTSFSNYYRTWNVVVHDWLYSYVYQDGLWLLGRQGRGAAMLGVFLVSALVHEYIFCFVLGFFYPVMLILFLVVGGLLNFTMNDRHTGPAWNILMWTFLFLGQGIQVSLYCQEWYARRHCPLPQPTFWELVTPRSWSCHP
In words: ACAT Assay (in vitro). It counts as biochemical. The note with it: for inhibition at 10 µM: Conc. 10 µM, negative = apparent stimulation, read-out: ACAT (in vitro) % Inhib.

The test system of the next assay is Hyperlipidemic Hamster. Briefly: In Vivo Assay of Hypolipidemic Agents Using the Hyperlipidemic Hamster. The note with it: Mesocricetus auratus, po, 168 h, 7 days, percent change versus control, negative = lowering; for change in vivo at 50 mg/kg: 50 mg/kg once daily oral; for change in vivo at 25 mg/kg: 25 mg/kg once daily oral. A digest of the protocol:
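Test compound in corn oil was given orally once daily for seven days, starting with a 0.5% cholesterol diet, to groups of six hamsters; corn oil alone served as control. Plasma and hepatic lipids were analysed after decapitation. Results are expressed as percent change relative to control.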

[1] abbreviates: read-out: % Reduction (in vivo) Cholest. Esters.
The mark [2] stands for this setting: read-out: % Reduction (in vivo) Serum Cholest.
Where [3] appears, read: rat liver microsomes, read-out: ACAT (in vitro) IC50.

Read-outs that look alike come from different tables or passages of the source.

As to `CC[C@@]1(c2ccccc2)C(=O)N(c2ccc(OC)cc2)[C@H]1c1ccc(OC)cc1` (relative stereo) [Example 1CK], on ACAT, the inhibition at 10 µM was -12%. The values for the change in vivo at 50 mg/kg in the assay on Hyperlipidemic Hamster (setting [1]) and with Hyperlipidemic Hamster (setting [2]) were -28% and 0%, respectively.
Turning to `COc1ccc(N2C(=O)[C@@](C)(CCCCc3ccccc3)[C@@H]2c2ccccc2)cc1` (relative stereo) [Example 3K], at ACAT, the inhibition at 10 µM was 19%. Also, the change in vivo at 50 mg/kg with Hyperlipidemic Hamster (setting [1]) and in the assay on Hyperlipidemic Hamster (setting [2]) was 0% in each case.
As to `COc1ccc(N2C(=O)[C@H](CCCc3ccccc3)[C@@H]2c2ccc3c(c2)OCO3)cc1` (relative stereo) [Example 1CN], at ACAT, the inhibition at 10 µM was -28%. The change in vivo at 50 mg/kg with Hyperlipidemic Hamster (setting [1]) and with Hyperlipidemic Hamster (setting [2]) was 0% in each case.
On to `COc1ccc(N2C(=O)[C@H](CCCc3ccccc3)[C@H]2c2ccc3c(c2)OCO3)cc1` (relative stereo) [Example 5Q], for which the inhibition at 10 µM at ACAT is -36%. The change in vivo at 50 mg/kg is -19% in the assay with Hyperlipidemic Hamster (setting [1]) and 0% with Hyperlipidemic Hamster (setting [2]).
As to `COc1ccc([C@@H]2[C@@H](CCCCc3ccccc3)C(=O)N2c2ccc(OC)cc2)cc1` (relative stereo) [Example 5AB], on ACAT, the inhibition at 10 µM came out at 30%. Besides, the change in vivo at 50 mg/kg in the assay on Hyperlipidemic Hamster (setting [1]) was -72%; with Hyperlipidemic Hamster (setting [2]), -28%.
As to `COc1ccc(N2C(=O)[C@H](CCCc3ccccc3)[C@H]2c2ccc(C)cc2)cc1` (relative stereo) [Example 5R], the inhibition at 10 µM at ACAT was found to be 18%. The change in vivo at 50 mg/kg with Hyperlipidemic Hamster (setting [1]) is -21%; in the assay with Hyperlipidemic Hamster (setting [2]) it was -20%.
Take `COc1ccc(N2C(=O)[C@@H](CCCc3ccccc3)[C@H]2c2ccc(C=O)cc2)cc1` (relative stereo) [Example 16]: the inhibition at 10 µM at ACAT worked out at 42%. The change in vivo at 50 mg/kg in the assay with Hyperlipidemic Hamster (setting [1]) is -29%; with Hyperlipidemic Hamster (setting [2]), -25%.
The corresponding values for `COc1ccc(C2N(c3ccc(OC)cc3)C(=O)C2(c2ccccc2)c2ccccc2)cc1` (stereo not drawn) [Example 7AC] are 31%, 0% and 0%.
Take `COc1ccc(N2C(=O)[C@H](CCCc3ccccc3)[C@@H]2c2ccc(C)cc2)cc1` (relative stereo) [Example 1BM]: the inhibition at 10 µM at ACAT stood at 38%. In addition, the change in vivo at 50 mg/kg with Hyperlipidemic Hamster (setting [1]) is -21%; in the assay on Hyperlipidemic Hamster (setting [2]) it was 0%.
For `CC[C@]1(CCCc2ccccc2)C(=O)N(c2c(OC)cc(OC)cc2OC)[C@H]1c1ccccc1` (relative stereo) [Example 3F], at ACAT, the inhibition at 10 µM is 82%. Also, the change in vivo at 50 mg/kg is -31% with Hyperlipidemic Hamster (setting [1]) and 0% in the assay with Hyperlipidemic Hamster (setting [2]).
Consider `COc1ccc(N2C(=O)[C@@](C)(CCCc3ccccc3)[C@@H]2c2ccccc2)cc1` (relative stereo) [Example 3J], for which the inhibition at 10 µM on ACAT worked out at 45%. For the same compound, the change in vivo at 50 mg/kg was -16% in the assay with Hyperlipidemic Hamster (setting [1]) and 0% in the assay on Hyperlipidemic Hamster (setting [2]).
For `CCCCCCCCCC[C@@]1(CC)C(=O)N(c2c(OC)cc(OC)cc2OC)[C@@H]1c1ccccc1` (relative stereo) [Example 3W], the inhibition at 10 µM on ACAT stood at 56%. Moreover, the change in vivo at 50 mg/kg in the assay with Hyperlipidemic Hamster (setting [1]) and with Hyperlipidemic Hamster (setting [2]) was 0% throughout.
Consider `COc1ccc(N2C(=O)[C@H](CCCc3ccccc3)[C@@H]2c2ccco2)cc1` (relative stereo) [Example 1BC], for which, on ACAT, the inhibition at 10 µM was -2%. The change in vivo at 50 mg/kg with Hyperlipidemic Hamster (setting [1]) and in the assay with Hyperlipidemic Hamster (setting [2]) was 0% in each case.
On to `COc1ccc(N2C(=O)[C@@H](CCCc3ccccc3)[C@H]2c2ccc(N)cc2)cc1` (relative stereo) [Example 8B], for which, at ACAT, the inhibition at 10 µM is -5%. The results for the change in vivo at 50 mg/kg in the assay on Hyperlipidemic Hamster (setting [1]) and in the assay with Hyperlipidemic Hamster (setting [2]) were -35% and -9%, respectively.
By IC50 is commonly meant the concentration that gives 50% inhibition. With `COc1ccc(N2C(=O)[C@H](CCCc3ccccc3)[C@H]2c2ccc(CO[Si](C)(C)C(C)(C)C)cc2)cc1` (relative stereo) [Example 1AS], at ACAT, the IC50 is 1 µM and the inhibition at 10 µM amounted to 83%. In the assay with Hyperlipidemic Hamster (setting [1]), the change in vivo at 50 mg/kg was -19%. The change in vivo at 50 mg/kg in the assay on Hyperlipidemic Hamster (setting [2]) turned out to be 0%.
Take `COc1ccc([C@@H]2N(c3ccc(OC)cc3)C(=O)[C@]2(Cc2ccccc2)c2ccccc2)cc1` (relative stereo) [Example 7AF]: on ACAT, the inhibition at 10 µM was determined as 53%. In addition, the change in vivo at 50 mg/kg with Hyperlipidemic Hamster (setting [1]) is -15%; with Hyperlipidemic Hamster (setting [2]) it was 23%.
Regarding `COc1ccc([C@@H]2N(c3ccc(OC)cc3)C(=O)[C@@]2(c2ccccc2)C2CCCC2)cc1` (relative stereo) [Example 7AD], the inhibition at 10 µM at ACAT was -22%. Besides, the change in vivo at 50 mg/kg with Hyperlipidemic Hamster (setting [1]) and in the assay on Hyperlipidemic Hamster (setting [2]) was -12% in each case.
`COc1ccc(N2C(=O)[C@H](CCCc3ccccc3)[C@@H]2c2ccc(OCc3ccccc3)cc2)cc1` (relative stereo) [Example 1BN]: the IC50 on ACAT (setting [3]) came out at 7 µM. Moreover, the change in vivo at 50 mg/kg was 0% in the assay on Hyperlipidemic Hamster (setting [1]) and -16% in the assay with Hyperlipidemic Hamster (setting [2]).
Consider `COc1ccc(N2C(=O)[C@H](CCCc3ccccc3)[C@@H]2c2ccc(OC)c(OC)c2)cc1` (relative stereo) [Example 1BB], for which the inhibition at 10 µM at ACAT was -16%. For the same compound, the change in vivo at 50 mg/kg in the assay on Hyperlipidemic Hamster (setting [1]) and in the assay with Hyperlipidemic Hamster (setting [2]) was 0% in each case.
Regarding `COc1ccc(N2C(=O)[C@H](CCCc3ccccc3)[C@H]2c2ccc(N)cc2)cc1` (relative stereo) [Example 8C], the inhibition at 10 µM on ACAT was found to be 63%. Moreover, the change in vivo at 50 mg/kg with Hyperlipidemic Hamster (setting [1]) and in the assay with Hyperlipidemic Hamster (setting [2]) was 0% in each case.
In the case of `COc1ccc(N2C(=O)[C@H](CCCc3ccccc3)[C@@H]2c2ccc(C(F)(F)F)cc2)cc1` (relative stereo) [Example 1BH], the inhibition at 10 µM on ACAT was 50%. The change in vivo at 50 mg/kg with Hyperlipidemic Hamster (setting [1]) and with Hyperlipidemic Hamster (setting [2]) was 0% each time.
In the case of `CC[C@@]1(CCCCc2ccccc2)C(=O)N(c2ccc(OC)cc2)[C@H]1c1ccccc1` (relative stereo) [Example 3L], the inhibition at 10 µM on ACAT was 53%. Further, the change in vivo at 25 mg/kg with Hyperlipidemic Hamster (setting [1]) and with Hyperlipidemic Hamster (setting [2]) was 0% each time.
As for `CCCCCCCCCCC1C(=O)N(c2c(OC)cc(OC)cc2OC)C1c1ccccc1` (stereo not drawn) [Example 1U], the inhibition at 10 µM on ACAT was 58%. The IC50 at ACAT (setting [3]) amounted to 19 µM. In addition, the change in vivo at 50 mg/kg with Hyperlipidemic Hamster (setting [1]) and in the assay on Hyperlipidemic Hamster (setting [2]) was 0% in each case.
In the case of `CCCCCCCCCC[C@@H]1C(=O)N(c2ccc(OC)cc2)[C@H]1c1ccccc1` (relative stereo) [Example 1T], at ACAT, the inhibition at 10 µM was -11%. For the same compound, the change in vivo at 50 mg/kg in the assay with Hyperlipidemic Hamster (setting [1]) and in the assay with Hyperlipidemic Hamster (setting [2]) was 0% in each case.
Regarding `CCOc1ccc([C@H]2[C@@H](CCCc3ccccc3)C(=O)N2c2ccc(OC)cc2)cc1` (relative stereo) [Example 1BO], at ACAT, the inhibition at 10 µM amounted to 79%. Also, the IC50 on ACAT (setting [3]) turned out to be 5.4 µM. The change in vivo at 50 mg/kg with Hyperlipidemic Hamster (setting [1]) is -93%; in the assay with Hyperlipidemic Hamster (setting [2]), -48%.
Turning to `CC[C@@]1(CCCc2ccccc2)C(=O)N(c2ccc(OC)cc2)[C@H]1c1ccccc1` (relative stereo) [Example 3A], the inhibition at 10 µM on ACAT stood at 33%. In addition, the change in vivo at 50 mg/kg with Hyperlipidemic Hamster (setting [1]) was -29%; in the assay on Hyperlipidemic Hamster (setting [2]) it was -12%.

Source of the values: US5688787A, “Substituted β-lactam compounds useful as hypochlesterolemic agents and processes for the preparation thereof” (priority 1996, dated 1997).
